Experimental findings from ChEMBL document CHEMBL1151901, “3-(aminomethyl)piperazine-2,5-dione as a novel NMDA glycine site inhibitor from the chemical universe database GDB” (Bioorg Med Chem Lett, 2009) are described below.

Assay [1] concerns the target Glutamate NMDA receptor; Grin1/Grin2a (Rattus norvegicus, UniProt P35439+Q00959). The experiment in a line: Activity at rat NR1/NR2A receptor expressed in Xenopus oocytes assessed as inhibition of glycine-induced electrophysiological response. It is filed as cell-based, Oocyte.
The target of assay [2] is Glutamate NMDA receptor (Rattus norvegicus) (UniProt P35439+Q00959+Q00960+Q00961+Q62645+Q8VHN2+Q9R1M7). Nature of the assay: Displacement of [3H]MDL105519 from rat brain NMDA receptor glycine binding site at 100 uM by Packard Topcount scintillation counter. For orientation: Displacement assays read how much labelled ligand stays bound in the presence of the test substance.

Each structure is given as a SMILES string. The source made the active and inactive calls. The rule behind the calls is not given here.

Chain of Glutamate NMDA receptor; Grin1/Grin2a (Q00959 whole entry, other chains not shown): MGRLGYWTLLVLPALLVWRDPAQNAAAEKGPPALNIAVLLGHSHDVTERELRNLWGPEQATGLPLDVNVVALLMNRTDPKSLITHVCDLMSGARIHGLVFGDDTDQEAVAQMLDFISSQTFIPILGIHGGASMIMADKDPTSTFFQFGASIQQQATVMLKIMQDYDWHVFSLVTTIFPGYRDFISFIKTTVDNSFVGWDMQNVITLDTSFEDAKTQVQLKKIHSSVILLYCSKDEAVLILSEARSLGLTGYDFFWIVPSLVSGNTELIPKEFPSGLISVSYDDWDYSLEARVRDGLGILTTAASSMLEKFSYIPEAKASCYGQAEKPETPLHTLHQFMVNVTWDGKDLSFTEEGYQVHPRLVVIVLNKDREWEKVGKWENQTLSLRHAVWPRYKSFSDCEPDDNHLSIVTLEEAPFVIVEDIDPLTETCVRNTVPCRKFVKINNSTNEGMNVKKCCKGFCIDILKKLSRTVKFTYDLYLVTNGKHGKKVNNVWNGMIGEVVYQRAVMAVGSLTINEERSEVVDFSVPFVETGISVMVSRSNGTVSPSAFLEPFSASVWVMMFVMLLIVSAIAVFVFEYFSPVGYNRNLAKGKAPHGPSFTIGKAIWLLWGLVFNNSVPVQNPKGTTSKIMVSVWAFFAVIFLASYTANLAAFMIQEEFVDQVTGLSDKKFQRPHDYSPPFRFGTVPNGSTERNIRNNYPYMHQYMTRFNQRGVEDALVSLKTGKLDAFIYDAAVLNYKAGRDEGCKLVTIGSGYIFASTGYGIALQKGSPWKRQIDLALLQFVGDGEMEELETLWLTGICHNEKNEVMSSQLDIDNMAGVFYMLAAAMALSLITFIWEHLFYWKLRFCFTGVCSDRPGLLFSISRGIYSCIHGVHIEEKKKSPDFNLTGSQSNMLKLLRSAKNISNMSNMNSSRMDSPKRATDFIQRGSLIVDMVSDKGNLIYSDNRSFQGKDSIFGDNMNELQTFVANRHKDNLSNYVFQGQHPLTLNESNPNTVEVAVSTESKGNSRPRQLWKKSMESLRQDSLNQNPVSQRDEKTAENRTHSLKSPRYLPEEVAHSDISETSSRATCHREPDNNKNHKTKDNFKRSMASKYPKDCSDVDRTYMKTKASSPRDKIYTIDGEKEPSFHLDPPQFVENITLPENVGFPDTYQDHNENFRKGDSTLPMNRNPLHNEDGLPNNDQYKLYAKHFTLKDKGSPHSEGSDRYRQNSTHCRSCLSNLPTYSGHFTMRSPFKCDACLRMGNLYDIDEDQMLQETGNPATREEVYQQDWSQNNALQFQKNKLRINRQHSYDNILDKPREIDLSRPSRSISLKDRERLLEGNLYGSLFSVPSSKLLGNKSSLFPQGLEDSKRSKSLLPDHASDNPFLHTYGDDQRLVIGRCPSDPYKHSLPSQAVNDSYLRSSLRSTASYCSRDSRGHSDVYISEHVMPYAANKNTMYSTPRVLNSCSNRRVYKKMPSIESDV

As a reminder, the IC50 is the concentration that inhibits the measured activity by half. For `NCCCC(=O)NCC(=O)O`, the IC50 in assay [1] is 65 µM. With `NCC1CNC(=O)C(=O)N1` (racemic), in assay [2], the outcome was inactive. As a reminder, the inhibition is the drop in the measured response relative to a control, in per cent. In general, Kd refers to the constant that tells how readily two partners part at equilibrium. With `NC[C@@H]1NC(=O)CNC1=O`, in assay [2], the inhibition worked out at 30%. In assay [1], the IC50 stood at 370 µM and the Kd came to 50 µM.

As for `C[C@H](N)CC(=O)NCC(=O)O`, the IC50 in assay [1] was 28 µM.
